Drawing on ChEMBL document CHEMBL1909046, “DrugMatrix in vitro pharmacology data”, this text covers IC50 and Ki for nine compounds.

Sodium-dependent dopamine transporter, sequence (Q01959 whole entry): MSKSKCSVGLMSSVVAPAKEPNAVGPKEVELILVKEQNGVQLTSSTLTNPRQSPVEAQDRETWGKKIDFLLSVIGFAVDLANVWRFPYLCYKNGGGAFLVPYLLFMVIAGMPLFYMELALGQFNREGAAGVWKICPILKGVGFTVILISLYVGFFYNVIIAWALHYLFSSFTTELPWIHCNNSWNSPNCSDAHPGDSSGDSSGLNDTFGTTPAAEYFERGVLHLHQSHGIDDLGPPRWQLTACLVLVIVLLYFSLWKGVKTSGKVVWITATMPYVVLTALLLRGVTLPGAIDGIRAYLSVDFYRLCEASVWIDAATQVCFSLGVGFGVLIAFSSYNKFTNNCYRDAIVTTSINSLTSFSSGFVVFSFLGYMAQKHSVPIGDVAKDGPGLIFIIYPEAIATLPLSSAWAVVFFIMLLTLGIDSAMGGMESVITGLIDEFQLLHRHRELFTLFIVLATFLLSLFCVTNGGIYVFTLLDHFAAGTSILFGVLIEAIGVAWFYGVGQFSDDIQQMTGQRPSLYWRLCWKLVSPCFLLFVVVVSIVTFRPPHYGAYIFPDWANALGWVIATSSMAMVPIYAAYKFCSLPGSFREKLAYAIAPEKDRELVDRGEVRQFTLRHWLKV

The first assay addresses Sodium-dependent dopamine transporter (Homo sapiens, UniProt Q01959). The assay can be described thus: DRUGMATRIX: Dopamine Transporter radioligand binding (ligand: [125I] RTI-55). Type of assay: cell membranes, CHO-K1, Membrane. Conditions: cho-k1; Not Active = under 50% inhibition at 10 µM.
With `CCCN1C[C@H](CSC)C[C@@H]2c3cccc4[nH]cc(c34)C[C@H]21` [PERGOLIDE], the IC50 result is “Not Active”.
Take `CNNCc1ccc(C(=O)NC(C)C)cc1` [PROCARBAZINE]: the IC50 result is “Not Active”.
On the same count and under the same terms, with `CNCCc1ccccn1` [BETAHISTINE] the entry was “Not Active”.
Still for that read-out and setting: with `Nc1nc(N)nc(-c2cc(Cl)ccc2Cl)n1.O=C(O)/C=C\C(=O)O` [IRSOGLADINE MALEATE] the entry was “Not Active”.
On the same count and under the same terms, with `CCCCc1nc(Cl)c(CO)n1Cc1ccc(-c2ccccc2-c2nnn[nH]2)cc1` [LOSARTAN] the entry was “Not Active”; with `COCCc1ccc(OCC(O)CNC(C)C)cc1` (configuration not stated) [METOPROLOL], “Not Active”; with `O=c1oc2ccccc2c(O)c1Cc1c(O)c2ccccc2oc1=O` [DICUMAROL], “Not Active”.

Test system in a further assay: not listed separately
As to the kind of experiment: DRUGMATRIX: Leukotriene, BLT (LTB4) radioligand binding (ligand: [3H]LTB4). It is filed as cell membranes, Membrane. Conditions: u-937; Not Active = under 50% inhibition at 10 µM.
In the case of `CCCN1C[C@H](CSC)C[C@@H]2c3cccc4[nH]cc(c34)C[C@H]21` [PERGOLIDE], the IC50 result is “Not Active” and the Ki entry is “Not Active”.
With `CCOC(=O)C1=C(COCCN)NC(C)=C(C(=O)OC)C1c1ccccc1Cl` (configuration not stated) [AMLODIPINE], the IC50 result is recorded as “Not Active” and the Ki result was “Not Active”.
Take `CNCCCN1c2ccccc2CCc2ccccc21` [DESIPRAMINE]: the IC50 entry is recorded as “Not Active” and the Ki result is given as “Not Active”.
Regarding `CNNCc1ccc(C(=O)NC(C)C)cc1` [PROCARBAZINE], the IC50 entry was “Not Active” and the Ki entry is given as “Not Active”.
In the case of `CNCCc1ccccn1` [BETAHISTINE], the IC50 result was “Not Active” and the Ki entry was “Not Active”.
For the compound `Nc1nc(N)nc(-c2cc(Cl)ccc2Cl)n1.O=C(O)/C=C\C(=O)O` [IRSOGLADINE MALEATE], the IC50 entry is given as “Not Active” and the Ki entry was “Not Active”.
With `CCCCc1nc(Cl)c(CO)n1Cc1ccc(-c2ccccc2-c2nnn[nH]2)cc1` [LOSARTAN], the IC50 entry is on record as “Not Active” and the Ki result is reported as “Not Active”.
In the case of `COCCc1ccc(OCC(O)CNC(C)C)cc1` (configuration not stated) [METOPROLOL], the IC50 result is given as “Not Active” and the Ki result is given as “Not Active”.
For the compound `O=c1oc2ccccc2c(O)c1Cc1c(O)c2ccccc2oc1=O` [DICUMAROL], the IC50 entry is reported as “Not Active” and the Ki entry was “Not Active”.

Test system in another assay: not listed separately
As to the kind of experiment: DRUGMATRIX: Nicotinic Acetylcholine radioligand binding (ligand: [125I] Epibatidine). Type of assay: cell membranes, Membrane. As to conditions: imr-32; Not Active = under 50% inhibition at 10 µM.
Turning to `CCCN1C[C@H](CSC)C[C@@H]2c3cccc4[nH]cc(c34)C[C@H]21` [PERGOLIDE], the IC50 result was “Not Active” and the Ki entry is given as “Not Active”.
For `CCOC(=O)C1=C(COCCN)NC(C)=C(C(=O)OC)C1c1ccccc1Cl` (configuration not stated) [AMLODIPINE], the IC50 result is on record as “Not Active” and the Ki entry is on record as “Not Active”.
Consider `CNCCCN1c2ccccc2CCc2ccccc21` [DESIPRAMINE], for which the IC50 entry is “Not Active” and the Ki result is recorded as “Not Active”.
As to `CNNCc1ccc(C(=O)NC(C)C)cc1` [PROCARBAZINE], the IC50 result was “Not Active” and the Ki entry is listed as “Not Active”.
Consider `CNCCc1ccccn1` [BETAHISTINE], for which the IC50 entry is listed as “Not Active” and the Ki entry is recorded as “Not Active”.
Regarding `Nc1nc(N)nc(-c2cc(Cl)ccc2Cl)n1.O=C(O)/C=C\C(=O)O` [IRSOGLADINE MALEATE], the IC50 result is “Not Active” and the Ki entry is “Not Active”.
Regarding `CCCCc1nc(Cl)c(CO)n1Cc1ccc(-c2ccccc2-c2nnn[nH]2)cc1` [LOSARTAN], the IC50 result is listed as “Not Active” and the Ki result is on record as “Not Active”.
On to `COCCc1ccc(OCC(O)CNC(C)C)cc1` (configuration not stated) [METOPROLOL], for which the IC50 result is on record as “Not Active” and the Ki entry was “Not Active”.
On to `O=c1oc2ccccc2c(O)c1Cc1c(O)c2ccccc2oc1=O` [DICUMAROL], for which the IC50 result is “Not Active” and the Ki result is reported as “Not Active”.

A further assay deals with Platelet-activating factor receptor (Homo sapiens, UniProt P25105). It is filed as tissue-based.
Platelet-activating factor receptor, sequence (P25105 whole entry): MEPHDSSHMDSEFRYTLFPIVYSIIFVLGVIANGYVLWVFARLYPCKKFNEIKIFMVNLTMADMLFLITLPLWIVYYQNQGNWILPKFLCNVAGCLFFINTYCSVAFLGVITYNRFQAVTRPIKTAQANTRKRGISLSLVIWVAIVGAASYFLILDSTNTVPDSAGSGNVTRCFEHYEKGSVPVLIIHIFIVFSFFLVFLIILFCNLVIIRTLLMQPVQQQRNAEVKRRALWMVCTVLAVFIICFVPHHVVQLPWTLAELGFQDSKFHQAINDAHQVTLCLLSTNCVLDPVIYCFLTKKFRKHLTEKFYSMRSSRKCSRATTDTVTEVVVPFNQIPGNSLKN
Conditions: not given
As to `CCCN1C[C@H](CSC)C[C@@H]2c3cccc4[nH]cc(c34)C[C@H]21` [PERGOLIDE], the IC50 entry is reported as “Not Active”.
On to `CCOC(=O)C1=C(COCCN)NC(C)=C(C(=O)OC)C1c1ccccc1Cl` (configuration not stated) [AMLODIPINE], for which the IC50 entry is “Not Active”.
The same measure, in the same setting: with `CNCCCN1c2ccccc2CCc2ccccc21` [DESIPRAMINE] the entry was “Not Active”; with `CNNCc1ccc(C(=O)NC(C)C)cc1` [PROCARBAZINE], “Not Active”.
Same read-out and setting: the result for `CNCCc1ccccn1` [BETAHISTINE] reads “Not Active”; that for `Nc1nc(N)nc(-c2cc(Cl)ccc2Cl)n1.O=C(O)/C=C\C(=O)O` [IRSOGLADINE MALEATE], “Not Active”; that for `CCCCc1nc(Cl)c(CO)n1Cc1ccc(-c2ccccc2-c2nnn[nH]2)cc1` [LOSARTAN], “Not Active”.
Still for that read-out and setting: with `COCCc1ccc(OCC(O)CNC(C)C)cc1` (configuration not stated) [METOPROLOL] the entry was “Not Active”; with `O=c1oc2ccccc2c(O)c1Cc1c(O)c2ccccc2oc1=O` [DICUMAROL], “Not Active”.

The next assay concerns the target T1, Caspase-1 (Homo sapiens, UniProt P29466).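 Also: Caspase-1 enzyme inhibition assay with a peptide substrate; in other assays of this panel Not Active means under 50% inhibition at 10 µM.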
T1 sequence (P29466 whole entry): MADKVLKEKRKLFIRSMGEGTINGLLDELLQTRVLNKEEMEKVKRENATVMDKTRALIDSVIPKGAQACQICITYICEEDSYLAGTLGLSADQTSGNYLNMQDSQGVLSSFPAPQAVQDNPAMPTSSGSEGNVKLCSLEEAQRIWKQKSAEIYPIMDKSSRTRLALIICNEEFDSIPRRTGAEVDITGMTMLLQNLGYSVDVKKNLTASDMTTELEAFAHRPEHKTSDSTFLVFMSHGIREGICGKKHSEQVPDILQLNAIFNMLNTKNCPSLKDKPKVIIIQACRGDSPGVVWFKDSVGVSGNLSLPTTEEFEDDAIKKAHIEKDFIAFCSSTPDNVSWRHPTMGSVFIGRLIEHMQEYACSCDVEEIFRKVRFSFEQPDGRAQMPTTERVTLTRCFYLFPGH
Also noted: species or system Escherichia coli.
Conditions: not given
Take `CCCN1C[C@H](CSC)C[C@@H]2c3cccc4[nH]cc(c34)C[C@H]21` [PERGOLIDE]: the IC50 entry is on record as “Not Active”.
`CCOC(=O)C1=C(COCCN)NC(C)=C(C(=O)OC)C1c1ccccc1Cl` (configuration not stated) [AMLODIPINE]: the IC50 entry is “Not Active”.
The same measure, in the same setting: the result for `CNCCCN1c2ccccc2CCc2ccccc21` [DESIPRAMINE] reads “Not Active”; that for `CNNCc1ccc(C(=O)NC(C)C)cc1` [PROCARBAZINE], “Not Active”.
On the same count and under the same terms, with `CNCCc1ccccn1` [BETAHISTINE] the entry was “Not Active”; with `Nc1nc(N)nc(-c2cc(Cl)ccc2Cl)n1.O=C(O)/C=C\C(=O)O` [IRSOGLADINE MALEATE], “Not Active”.
On the same count and under the same terms, the result for `CCCCc1nc(Cl)c(CO)n1Cc1ccc(-c2ccccc2-c2nnn[nH]2)cc1` [LOSARTAN] reads “Not Active”.
On to `COCCc1ccc(OCC(O)CNC(C)C)cc1` (configuration not stated) [METOPROLOL], for which the IC50 result is reported as “Not Active”.
On the same count and under the same terms, the result for `O=c1oc2ccccc2c(O)c1Cc1c(O)c2ccccc2oc1=O` [DICUMAROL] reads “Not Active”.

For a further assay, the target named is T2, 5-hydroxytryptamine receptor 1A (Rattus norvegicus, UniProt P19327). Also: in other assays of this panel Not Active means under 50% inhibition at 10 µM.
T2 sequence (P19327 whole entry): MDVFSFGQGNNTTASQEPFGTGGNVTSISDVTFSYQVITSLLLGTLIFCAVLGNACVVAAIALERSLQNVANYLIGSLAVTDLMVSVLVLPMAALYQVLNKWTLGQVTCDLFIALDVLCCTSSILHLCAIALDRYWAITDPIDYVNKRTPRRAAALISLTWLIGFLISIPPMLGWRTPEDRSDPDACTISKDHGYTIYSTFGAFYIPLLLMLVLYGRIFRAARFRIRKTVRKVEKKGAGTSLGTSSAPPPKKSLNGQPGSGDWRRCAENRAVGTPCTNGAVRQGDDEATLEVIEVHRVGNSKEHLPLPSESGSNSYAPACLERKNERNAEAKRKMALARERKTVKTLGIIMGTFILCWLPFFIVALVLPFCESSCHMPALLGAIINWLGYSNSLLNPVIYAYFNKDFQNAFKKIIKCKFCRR
It is filed as cell membranes, CHO-K1, Membrane. Conditions: cho-k1.
On to `CCOC(=O)C1=C(COCCN)NC(C)=C(C(=O)OC)C1c1ccccc1Cl` (configuration not stated) [AMLODIPINE], for which the IC50 result was “Not Active”.
On the same count and under the same terms, with `CNCCCN1c2ccccc2CCc2ccccc21` [DESIPRAMINE] the entry was “Not Active”; with `CNNCc1ccc(C(=O)NC(C)C)cc1` [PROCARBAZINE], “Not Active”.
On the same count and under the same terms, with `CNCCc1ccccn1` [BETAHISTINE] the entry was “Not Active”.
Same read-out and setting: with `Nc1nc(N)nc(-c2cc(Cl)ccc2Cl)n1.O=C(O)/C=C\C(=O)O` [IRSOGLADINE MALEATE] the entry was “Not Active”; with `CCCCc1nc(Cl)c(CO)n1Cc1ccc(-c2ccccc2-c2nnn[nH]2)cc1` [LOSARTAN], “Not Active”.
As for `COCCc1ccc(OCC(O)CNC(C)C)cc1` (configuration not stated) [METOPROLOL], the IC50 entry was “Not Active”.
The same measure, in the same setting: with `O=c1oc2ccccc2c(O)c1Cc1c(O)c2ccccc2oc1=O` [DICUMAROL] the entry was “Not Active”.

The next assay has as its target T3, Estrogen receptor (Homo sapiens, UniProt P03372). Also: in other assays of this panel Not Active means under 50% inhibition at 10 µM.
T3 sequence (P03372 whole entry): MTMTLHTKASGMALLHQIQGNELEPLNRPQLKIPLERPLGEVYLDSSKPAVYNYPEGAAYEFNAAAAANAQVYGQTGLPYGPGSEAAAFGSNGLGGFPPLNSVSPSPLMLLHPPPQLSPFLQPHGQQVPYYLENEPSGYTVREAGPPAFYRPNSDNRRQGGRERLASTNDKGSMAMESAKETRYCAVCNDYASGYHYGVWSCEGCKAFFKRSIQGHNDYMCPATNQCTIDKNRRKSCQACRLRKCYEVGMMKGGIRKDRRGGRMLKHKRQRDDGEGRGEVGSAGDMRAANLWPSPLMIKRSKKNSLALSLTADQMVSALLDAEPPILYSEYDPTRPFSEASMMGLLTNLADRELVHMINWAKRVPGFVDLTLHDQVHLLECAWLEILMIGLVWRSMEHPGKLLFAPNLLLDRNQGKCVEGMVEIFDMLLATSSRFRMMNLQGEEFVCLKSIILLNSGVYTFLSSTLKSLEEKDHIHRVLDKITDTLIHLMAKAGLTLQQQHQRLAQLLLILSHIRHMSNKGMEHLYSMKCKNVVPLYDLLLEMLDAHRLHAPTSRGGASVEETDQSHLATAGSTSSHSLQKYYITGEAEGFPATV
Conditions: sf9.
On to `CCCN1C[C@H](CSC)C[C@@H]2c3cccc4[nH]cc(c34)C[C@H]21` [PERGOLIDE], for which the IC50 entry is recorded as “Not Active”.
The same measure, in the same setting: the result for `CCOC(=O)C1=C(COCCN)NC(C)=C(C(=O)OC)C1c1ccccc1Cl` (configuration not stated) [AMLODIPINE] reads “Not Active”; that for `CNCCCN1c2ccccc2CCc2ccccc21` [DESIPRAMINE], “Not Active”.
